Test system: PC-3 xenografts
Experiment: Ex vivo biodistribution in PC-3 xenograft bearing mice
Set-up: species or system BALB/C nu/nu mice
Details: mice bearing PC-3 xenografts, 4 h pi
Source text: Animal studies were in compliance with the European guidelines for laboratory animal protection. BALB/C nu/nu mice were used and the experimental protocols were approved by the ethics committee for animal research in Uppsala (Sweden); permit number 00473/21.
The biodistribution profiles and tumor targeting of maSSS-/SES-PEG2-RM26, labeled with Re-188 or Tc-99 m, were compared head-to-head in the same batch of animals, inoculated with the same PC-3 cells-suspension. After acclimatization, animals were inoculated subcutaneously (right hind leg) with 7 × 10^6 freshly harvested PC-3 cells per animal, in PBS. After approximately four weeks solid tumors were present at the inoculation sites and the animals were randomly divided in groups of four.
For the ex vivo biodistribution experiments animals were injected via the tail vein with 50 pmol (120 kBq for Re-188 and 60 kBq for Tc-99 m) of the radiopeptide under evaluation, in 100 µl solution in PBS supplemented with 1% w/v BSA. Animals were euthanized at 1 h and 4 h post injection (pi) and tissues / organs of interest and tumors were collected, weighted and their radioactivity content was measured on a gamma counter. Each group comprised by four animals (n = 4).
Statistical analysis was performed using GraphPad Prism, employing a two-way ANOVA test with Tuckey’s posthoc analysis.

ratio of activity uptake in caecum, Re-188 over Tc-99 m [fold] | Structure (SMILES)
2.3 | CC(C)C[C@H](NC(=O)C[C@H](O)[C@H](CC(C)C)NC(=O)[C@H](Cc1c[nH]cn1)NC(=O)CNC(=O)[C@@H](NC(=O)[C@H](C)NC(=O)[C@H](Cc1c[nH]c2ccccc12)NC(=O)[C@H](CCC(N)=O)NC(=O)[C@@H](Cc1ccccc1)NC(=O)COCCOCCNC(=O)[C@H](CO)NC(=O)[C@H](CCC(=O)O)NC(=O)[C@H](CO)NC(=O)CS)C(C)C)C(N)=O [maSES-PEG2-RM26, mercaptoacetyl-Ser-Glu-Ser-PEG2-RM26]
1.4 | CC(C)C[C@H](NC(=O)C[C@H](O)[C@H](CC(C)C)NC(=O)[C@H](Cc1c[nH]cn1)NC(=O)CNC(=O)[C@@H](NC(=O)[C@H](C)NC(=O)[C@H](Cc1c[nH]c2ccccc12)NC(=O)[C@H](CCC(N)=O)NC(=O)[C@@H](Cc1ccccc1)NC(=O)COCCOCCNC(=O)[C@H](CO)NC(=O)[C@H](CO)NC(=O)[C@H](CO)NC(=O)CS)C(C)C)C(N)=O [maSSS-PEG2-RM26, mercaptoacetyl-Ser-Ser-Ser-PEG2-RM26]
